Data set [1] in a line: Stability of nBTPT in/on urea:AS blend, bagged versus open to air storage in nissenhut. The note with it: 500 ppm nBTPT in/on urea blended with granular AS 1:1; 35 days in nissenhut. Format: physicochemical. How it is done:
FIG. 8. Stability of different nBTPT formulations (500 ppm) in and on urea in a blend with granular AS: bagged versus open to air storage-% recovery of nBTPT after 35 days of storage in nissenhut (day/night cycle 16-42° C./27-77% relative humidity). • A=[500 ppm nBTPT powder in urea]+AS 1:1 • B=[500 ppm nBTPT powder on urea]+AS 1:1 • C=[500 ppm nBTPT as Agrotain® Ultra in urea]+AS 1:1 • D=[500 ppm nBTPT as Agrotain® Ultra on urea]+AS 1:1
(§1) The samples were stored under several conditions, dependent on the type of samples: • 20° C. closed plastic container with head space (Climate chamber, 80% relative humidity) • Bagged at room temperature (20-25° C.) or in nissenhut (an unconditioned bulk hall) • Open to air in nissenhut • Cylinder test in nissenhut • Open pile in nissenhut
(§2) Typically, a day/night cycle is generated in the nissenhut, with temperature fluctuations between 0 to 42° C. and fluctuations of relative humidity between 20 and 90%, which can be compared with real life storage in silos.
(§3) HPLC analysis of nBTPT is done as described in the procedure CEN 15688-2007.
(§4) In practice, the urea-based compound treated with nBTPT was picked and separated manually from the particulate material, comprising one or more components selected from the group of nitrates, phosphates, sulphates and chlorides, and then subsequently dissolved in water for HPLC analysis.

The nature of data set [2]: Stability of nBTPT in/on urea blends, storage open to air in jars in nissenhut, HPLC analysis of nBTPT content. The class given is physicochemical. The note with it: for stability of nBTPT (degradation): 35 days open to air in jars in nissenhut; for effect of addition on the stability of nBTPT: 2650 ppm added, 14 days open to air in jars at nissenhut. How it is done: nBTPT was mixed in urea in the following way: nBTPT was added to urea melt and subsequently this mixture was granulated in a fluidized bed granulator.
(§5) For lab scale experiments, nBTPT was applied onto urea by adding 1.2 kg of urea-based compound to a lab scale drum. In a next step, the nBTPT material was slowly added. A residence time of 10 minutes was applied and the rotating speed of the drum was consequently the same in each experiment. In case a moisture repellent coating was added, a nebulizer was used and depending on the order of addition, the moisture repellent coating was added before or after addition of the nBTPT material. Before use, the moisture repellent coating was preheated to 80° C. Larger scale experiments with amounts up to 40 kg of fertilizer material were performed in a concrete mixer.
(§6) In a next step, one or more reactive alkaline or alkaline-forming inorganic or organic compounds that is able to interact with the one or more components selected from the group of nitrates, phosphates, sulphates and chlorides was added;
(§7) In a next step, a particulate material, comprising one or more components selected from the group of nitrates, phosphates, sulphates and chlorides was added;
(§8) All the components were mixed thoroughly.
as §1, §2, §3, §4

The nature of data set [3]: Stability of nBTPT on urea blended with DAP, bagged storage at 20° C., HPLC analysis of nBTPT content. Format: physicochemical. The settings on record: 2500 ppm added; 900 ppm nBTPT as Agrotain Ultra on urea blended with DAP 1:1; 14 days bagged storage at 20° C. How it is done:
as §5, §6, §7, §8
Optionally, a coating to one or more of the particulate components that is able to increase at least the anti-caking and/or water repellent properties of said urea-based blend composition was added. Importantly, all the steps can be interchanged or the steps can be performed simultaneously.
as §1, §3, §4
Coating: Moisture repellent (MR) coating was made according to EP 0768993 A1 (Norsk Hydro ASA) by mixing about 28 weight % of wax, about 68 weight % of oil and about 4 weight % of a resin, applied in an amount of about 0.1-0.5% weight % to the fertilizer. It will be referred herein as NH coating.

Data set [4] is classed as physicochemical. An excerpt: With regard to the activity of the reactive alkaline or alkaline-forming inorganic or organic compounds, without being bound by theory, it is hypothesised that the reactive alkaline or alkaline-forming inorganic or organic compound neutralises the released phosphoric acid which is formed during decomposition of the urease inhibitor of the type phosphoric triamide in view of the fact that the decomposition of the urease inhibitor of the type phosphoric triamide is acid-catalysed. As such, the decomposition of the urease inhibitor of the type phosphoric triamide is slowed down. Furthermore, the stabilizer has the ability to immobilize the nitrates, phosphates, sulphates and chlorides and/or to convert the nitrates, phosphates, sulphates and chlorides into a form which is less reactive with the urease inhibitor of the type phosphoric triamide. For example, calcium oxide may react with ammonium sulphate in the presence of water, which is always present in small amounts in urea, to form calcium sulphate, which is nearly insoluble in an aqueous environment, such as a soil.

With `CCCCNP(N)(N)=S` [nBTPT, N-(n-butyl) thiophosphoric triamide], the “effect of bagged storage versus open to air storage on stability of nBTPT” value in data set [1] is “beneficial effect of bagged storage”. Further, the “stability of nBTPT (degradation)” value in data set [2] (liquid nBTPT formulations in and on urea (500 ppm) blended with granular AS 1:1, 16-42° C./27-77% relative humidity) is listed as “degrades very fast”; in data set [2] (nBTPT formulations in and on urea (500 ppm) blended with DAP and KCl, triple 19 ratio), “degrades very dramatically”; in data set [2] (solid nBTPT in and on urea (500 ppm) blended with DAP 1:1), “degrades very fast”; in data set [2] (solid nBTPT in and on urea (500 ppm) blended with KCl 1:1), “degrades very fast”.
For the molecule `[O]=[Ca]` [CaO, calcium oxide], the “effect of addition on the stability of nBTPT” value in data set [3] is recorded as “beneficial effect”; in data set [2] (500 ppm nBTPT powder in or on urea blended with DAP and KCl triple 19) it was “beneficial effect”; in data set [2] (500 ppm nBTPT powder in or on urea blended with granular AS 1:1), “beneficial effect”.
Turning to `[O]=[Zn]` [ZnO, zinc oxide], the “effect of addition on the stability of nBTPT” value in data set [3] is given as “beneficial effect”.
Still for that read-out and setting: then `O=C([O-])[O-].[Ca+2]` [CaCO3, calcium carbonate], with “beneficial effect”.
Same read-out and setting: then `CCN(CC)CC` [triethylamine], with “beneficial effect”.
Still for that read-out and setting: then `[O]=[Mg]` [MgO, magnesium oxide], with “beneficial effect”; and `OCCNCCO` [diethanolamine], with “beneficial effect”.
As to talc, the “stabilizing effect on nBTPT” value in data set [4] is listed as “no stabilizing effect”.

The values are drawn from patent US11072567B2, “Urea-based blend composition and method for the manufacture thereof” (YARA INTERNATIONAL ASA, priority 2015, dated 2021).
